Results from publication PMC12491715 (Acta Pharmaceutica Sinica. B, 2025).

Key:
hAChE = hAChE (Homo sapiens, UniProt P22303); assay: ChE IC50 determination, method of Ellman, hAChE; type: biochemical; settings: for remaining activity at 100 µM: residual activity at 100 μmol/L, read-out: hAChE RA±SD (residual activity); for remaining activity at 100 µM / IC50: after 5 min preincubation; for IC50: read-out: hAChE IC50±SD; for hAChE time-dependency observed: Yes/No: pre-incubation time varied
Experimental: (§1) The inhibitory potencies of the compounds against the ChEs were determined using the method of Ellman following the procedure described previously. Briefly, compound stock solutions in DMSO were incubated with Ellman’s reagent and ChEs (final concentrations: 370 μmol/L Ellman’s reagent, approximately 1 nmol/L or 50 pmol/L hBChE or hAChE, respectively) in 0.1 mol/L sodium phosphate pH 8.0 for 5 min at 20 °C. For time-dependency measurements, the pre-incubation time was varied (1, 5, 15, 30 or 60 min). The reactions were started by the addition of the substrate (final concentration, 500 μmol/L butyrylthiocholine iodide or acetylthiocholine iodide for hBChE and hAChE, respectively). The final content of DMSO was always 1%. The increase in absorbance at 412 nm was monitored for 2 min using a 96-well microplate reader (Synergy HT, BioTek Instruments, VT, USA). The initial velocities in the presence (vi) and absence (v0) of the test compounds were calculated. The inhibitory potencies were expressed as the residual activities, according to Eq. (1):(1) RA = vi / v0
(§2) For IC50 determinations, at least seven different concentrations for each compound were used. The IC50 values were obtained by plotting the residual ChE activities against the applied inhibitor concentrations, with the experimental data fitted to a four-parameter logistic function (GraphPad Prism 9.4). Tacrine and donepezil were used as positive controls.

hBChE [1] = biological target: T1, hBChE (Homo sapiens, UniProt P06276); assay: ChE IC50 determination, method of Ellman, hBChE; type: biochemical; settings: for ChE inhibition of the leaving groups: ChEs (hBChE and hAChE); for remaining activity at 100 µM: residual activity at 100 μmol/L, read-out: hBChE RA±SD (residual activity); for remaining activity at 100 µM / IC50: after 5 min preincubation; for hBChE time-dependency observed: Yes/No: pre-incubation time varied; for IC50: read-out: hBChE IC50±SD
Experimental: as §1, §2

[2] = system: caspase-3 activity in SH-SY5Y cells; assay: Caspase-3 activity in lysates of Aβ1–42-treated cells; type: cell-based, human; settings: 5 μmol/L compound, 5 μmol/L fibrillar Aβ1–42, 24 h
Experimental: (§3) Cell culture and treatments The human neuroblastoma SH-SY5Y cell line was purchased from American Type Culture Collection (Manassas, VA, USA). Cells were cultured in Advanced Dulbecco’s modified Eagle’s medium (Gibco, Thermo Fisher Scientific, Waltham, MA, USA) supplemented with 10% fetal bovine serum (FBS, Gibco), 2 mmol/L L-glutamine, 50 U/mL penicillin and 50 μg/mL streptomycin (Sigma, St. Louis, MO, USA) in a humidified atmosphere of 95% air and 5% CO2 at 37 °C, and grown to 80% confluence. Prior to cell treatment, complete medium was replaced with serum-reduced medium (i.e., with 2% FBS). Compounds were prepared as a stock solution of 50 mmol/L in DMSO.
Caspase-3 activity and Western blot analysis The activity of caspases-3 was determined in total cell lysates of the SH-SY5Y cells treated as described. […] Following cell treatment for 24 h, cell lysates were prepared, and the caspase-3 activity was assessed using the fluorescent peptide substrate N-acetyl-L-α-aspartyl-L-α-glutamyl-L-valyl-N-[2-oxo-4-(trifluoromethyl)-2H-1-benzopyran-7-yl]-L-α-asparagine (Ac-DEVD-AFC; Bachem). […] Immediately after the addition of the substrate, fluorescence was monitored continuously for 30 min at an excitation wavelength of 405 nm and an emission wavelength of 535 nm using a Tecan Safire[2] fluorescence microplate reader. […]

hBChE [3] = biological target: T1, hBChE; assay: hBChE binding kinetics: carbamoylation and decarbamoylation, initial velocity measurements; type: biochemical
Experimental: The progress curves for the time courses of product formation for the hydrolysis of butyrylthiocholine iodide were measured on an Agilent Cary 3500 UV–VIS spectrophotometer with Compact Peltier (thermostated at 25 °C) at 412 nm using a 0.6 mL cuvette (optical path–0.5 cm). 30 mmol/L Tris buffer pH 7.0 with 1 mg/mL BSA and 0.02% NaN3 was used and all dilutions were done in glass vessels (note: dilute hBChE solutions rapidly lose activity, presumably due to adsorption to plastic, preventing meaningful decarbamoylation assays. In our hands, under the above conditions only, the diluted and stock solutions of hBChE were stable for at least a month at room temperature.). Total volume in the cuvette was always 500 μL, and enzyme solutions that gave upon dilution v0 = (dA/dt) ≈ 0.5 (for carbamoylation) and ≈ 1 for (for decarbamoylation) were used. For carbamoylation experiments, 0.5–1 μL of enzyme stock, 5 μL of compound solution, and 484 μL of buffer were preincubated for the specified time, then 10 μL of the mixture of 25 mmol/L Ellman’s reagent (DTNB) and 20 mmol/L butyrylthiocholine (large excess to prevent substrate depletion) were added, quickly mixed, and measurement started. […] The data analysis followed the literature[63]^,[98].

SH-SY5Y cells = assay: Neuroprotection assay against Aβ1–42, 7-AAD flow cytometry; type: cell-based, human; settings: 5 μmol/L compound, 5 μmol/L fibrillar Aβ1–42, 48 h
Experimental: as §3
Neuroprotection assay The neuroprotective effect of compounds on cytotoxic effect of Aβ1–42 was determined with the fluorescent intercalator 7-aminoactinomycin D (7-AAD) assessed by flow cytometry. Prior to cell treatment, the peptide Aβ1–42 (Merck Millipore, Darmstadt, Germany) was dissolved in DMSO at a concentration of 1 mmol/L and was incubated at 100 μmol/L in 1 mol/L HCl at 37 °C for 24 h to induce Aβ aggregation. […] Cells were then analysed for cytotoxicity by flow cytometry on Attune NxT flow cytometer (Thermo Fisher Scientific). The percentage of 7AAD positive (7AADpos) cells was evaluated using FlowJo software (FlowJo, LLC., Ashland, OR, USA).

Aqueous stability (UPLC) = type: physicochemical; settings: for t1/2 in aqueous solution / k: PBS:EtOH = 80:20, 10 mmol/L; for k: pseudo-first order; for half-life: buffer, PBS:EtOH = 80:20, calculated half-lives only approximates, read-out: t1/2 in aqueous solution (converted)
Experimental: For the aqueous stability determination, UPLC analyses were performed as described under Chemistry–General Information. The method used a Waters Acquity UPLC® HSS C18 SB column (2.1 mm× 50 mm, 1.8 μm) thermostated at 40 °C, with: injection volume, 5 μL; flow rate, 0.4 mL/min; detector λ, 220 nm; mobile phase A: 0.1% TFA (v/v) in MilliQ water; mobile phase B: MeCN. Gradient: 0–5 min, 20%–100% B; 5–6 min, 20% B.
Compound stock solutions (100 mmol/L) were prepared in absolute EtOH, while the internal standard (caffeine) was dissolved in PBS (0.1 mg/mL). The aqueous stability solutions were prepared by mixing 1200 μL PBS with internal standard, 150 μL absolute EtOH, and 150 μL compound stock solution in a HPLC vial to give 10 mmol/L compound concentration in PBS/EtOH = 80:20, which was injected immediately and then at hourly intervals for 48 h. The analyte AUCs were normalized on internal standard AUCs and compared with the timepoint zero. For the rate calculation, pseudo-first order kinetics were assumed.
For investigation of compound 8 stability in an aqueous medium, its stock solution (10,000 mg/L) was prepared in EtOH. 15 μL of the stock solution was mixed with 60 μL of caffeine (2500 mg/L in EtOH) and 1425 μL of the respective aqueous solution/buffer to achieve final concentration of 100 mg/L with 5% ethanol content. The UPLC analysis was carried as described above.

T1 sequence (P06276 29-602): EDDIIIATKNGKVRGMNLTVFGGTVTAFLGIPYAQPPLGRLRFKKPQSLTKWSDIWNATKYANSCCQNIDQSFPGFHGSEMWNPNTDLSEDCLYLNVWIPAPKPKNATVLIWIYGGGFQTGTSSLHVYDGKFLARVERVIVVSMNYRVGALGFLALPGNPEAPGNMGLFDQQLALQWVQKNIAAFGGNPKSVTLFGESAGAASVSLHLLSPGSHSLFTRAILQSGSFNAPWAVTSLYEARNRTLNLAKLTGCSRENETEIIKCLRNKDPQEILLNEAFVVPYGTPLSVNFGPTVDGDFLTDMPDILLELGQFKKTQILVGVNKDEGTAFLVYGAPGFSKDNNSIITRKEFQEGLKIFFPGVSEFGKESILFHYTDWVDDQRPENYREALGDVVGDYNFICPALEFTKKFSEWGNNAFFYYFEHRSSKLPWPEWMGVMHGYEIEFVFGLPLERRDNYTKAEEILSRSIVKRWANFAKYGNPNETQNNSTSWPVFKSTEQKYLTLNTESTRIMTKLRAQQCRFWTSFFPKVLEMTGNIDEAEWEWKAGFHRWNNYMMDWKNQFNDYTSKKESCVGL
Chain of hAChE (P22303 32-614): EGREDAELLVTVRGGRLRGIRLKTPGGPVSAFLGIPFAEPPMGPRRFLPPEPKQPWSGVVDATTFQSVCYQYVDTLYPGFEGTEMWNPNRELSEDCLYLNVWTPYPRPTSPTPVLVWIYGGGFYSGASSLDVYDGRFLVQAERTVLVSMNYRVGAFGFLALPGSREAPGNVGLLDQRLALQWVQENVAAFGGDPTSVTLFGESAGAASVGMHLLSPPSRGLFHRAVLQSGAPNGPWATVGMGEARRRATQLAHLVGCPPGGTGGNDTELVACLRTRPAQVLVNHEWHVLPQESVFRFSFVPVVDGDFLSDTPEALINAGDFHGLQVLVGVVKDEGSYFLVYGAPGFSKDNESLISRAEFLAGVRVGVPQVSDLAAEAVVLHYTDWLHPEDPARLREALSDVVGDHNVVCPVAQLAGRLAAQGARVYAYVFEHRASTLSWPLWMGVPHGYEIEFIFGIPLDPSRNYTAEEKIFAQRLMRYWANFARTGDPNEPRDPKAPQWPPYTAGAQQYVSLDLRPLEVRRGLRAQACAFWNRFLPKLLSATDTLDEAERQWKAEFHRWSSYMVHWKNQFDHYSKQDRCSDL

With CCC1(c2nc[nH]n2)Cc2ccccc2C1 [Compound 16, 3-(2-Ethylindan-2-yl)-1H-1,2,4-triazole] as the molecule, how does the remaining activity at 100 µM (hAChE) read?
The remaining activity at 100 µM was 83%.

What about the “ChE inhibition of the leaving groups” value (hBChE [1]) of the same molecule?
Its value is “ineffective”.

And the remaining activity at 100 µM (hBChE [1])?
The remaining activity at 100 µM was 89%.

Which results are given for CCC1(c2cn(C(=S)N(C)C)cn2)Cc2ccccc2C1 [Compound 11, 4-(2-Ethylindan-2-yl)-N,N-dimethyl-1H-imidazole-1-carbothioamide]?
remaining activity at 100 µM (hAChE): 69%; hBChE time-dependency observed: Yes/No (hBChE [1]): Yes; remaining activity at 100 µM (hBChE [1]): 49%

Which results are given for CCC1(c2cn(C(=O)N(C)C)cn2)Cc2ccccc2C1 [Compound 6, 4-(2-Ethylindan-2-yl)-N,N-dimethyl-1H-imidazole-1-carboxamide]?
caspase-3 activity after Aβ1–42 treatment [2]: significant reduction; Ki (hBChE [3]): 116 ± 3 nM; kcarb, carbamoylation (hBChE [3]; 25 °C): 9.0±2.5 min^–1; kdecarb, decarbamoylation (hBChE [3]; 25 °C): 3.59±0.28 ×10^–2 h^–1; t1/2, decarbamoylation (hBChE [3]; 25 °C): 19.3 ± 1.5 h; ΔG25°C‡, carbamoylation (hBChE [3]; 25 °C): 18.6 ± 0.2 kcal/mol; 7-AAD-positive cells after Aβ1–42 treatment (SH-SY5Y cells): significant reduction; IC50 (hAChE): 32.8 µM; hAChE time-dependency observed: Yes/No (hAChE): Yes; t1/2 in aqueous solution (Aqueous stability (UPLC); during 48 h): stable; selectivity for hBChE over hAChE (hBChE [1]): 2500 fold; IC50 (hBChE [1]): 14 ± 2 nM; hBChE time-dependency observed: Yes/No (hBChE [1]): Yes

Which IC50 (hAChE) does the source give for CCC1(c2ncn(C(=O)N(C)C)n2)Cc2ccccc2C1 [Compound 17, 3-(2-Ethylindan-2-yl)-N,N-dimethyl-1H-1,2,4-triazole-1-carboxamide] here?
Its IC50 is 2.93 ± 1.28 µM.

And the “hAChE time-dependency observed: Yes/No” value (hAChE)?
The value was “Yes”.

And the k (Aqueous stability (UPLC))?
Its k is 0.000628 h–1.

And the half-life (Aqueous stability (UPLC))?
Its half-life is about 46 days.

What about the IC50 (hBChE [1]) of the same molecule?
The IC50 was 5 ± 1.2 nM.

What about the “hBChE time-dependency observed: Yes/No” value (hBChE [1]) of the same molecule?
Its value is “Yes”.

For CCC1(c2cn(C(=O)N(C)C)c[n+]2C)Cc2ccccc2C1.O=S(=O)([O-])C(F)(F)F [Compound 13, 1-(Dimethylcarbamoyl)-4-(2-ethylindan-2-yl)-3-methyl-1H-imidazol-3-ium trifluoromethanesulfonate], which IC50 (hAChE) is on record?
The IC50 was 3.19 ± 0.4 µM.

What about the “hAChE time-dependency observed: Yes/No” value (hAChE) of the same molecule?
The value was “Yes”.

What about the “t1/2 in aqueous solution” value (Aqueous stability (UPLC)) of the same molecule?
The value was 13.2 h.

What about the k (Aqueous stability (UPLC)) of the same molecule?
The k was 0.05236 h–1.

And the IC50 (hBChE [1])?
Its IC50 is 8.4 ± 4.6 nM.

What about the “hBChE time-dependency observed: Yes/No” value (hBChE [1]) of the same molecule?
The value was “Yes”.

Which remaining activity at 100 µM (hAChE) does the source give for CCC1(c2cncn2C)Cc2ccccc2C1 [Compound 12, 5-(2-Ethylindan-2-yl)-1-methyl-1H-imidazole] here?
Its remaining activity at 100 µM is 74%.

And the “ChE inhibition of the leaving groups” value (hBChE [1])?
Its value is “ineffective”.

What about the remaining activity at 100 µM (hBChE [1]) of the same molecule?
The remaining activity at 100 µM was 67%.

With CCC1(c2cn(C(=O)N(C)Cc3ccccc3)cn2)Cc2ccccc2C1 [Compound 10, N-Benzyl-4-(2-ethylindan-2-yl)-N-methyl-1H-imidazole-1-carboxamide] as the molecule, how does the “hAChE time-dependency observed: Yes/No” value (hAChE) read?
The value was “Yes”.

What about the remaining activity at 100 µM (hAChE) of the same molecule?
The remaining activity at 100 µM was 34%.

And the IC50 (hBChE [1])?
Its IC50 is 53 ± 10 nM.

What about the “hBChE time-dependency observed: Yes/No” value (hBChE [1]) of the same molecule?
Its value is “Yes”.

Which results are given for CCC1(c2cn[nH]n2)Cc2ccccc2C1 [Compound 14, 4-(2-Ethylindan-2-yl)-2H-1,2,3-triazole]?
remaining activity at 100 µM (hAChE): 85%; ChE inhibition of the leaving groups (hBChE [1]): ineffective; remaining activity at 100 µM (hBChE [1]): 82%

For CCC1(c2cnn(C(=O)N(C)C)n2)Cc2ccccc2C1 [Compound 15, 4-(2-Ethylindan-2-yl)-N,N-dimethyl-2H-1,2,3-triazole-2-carboxamide], which IC50 (hAChE) is on record?
The IC50 was 0.234 ± 0.046 µM.

And the “hAChE time-dependency observed: Yes/No” value (hAChE)?
The value was “Yes”.

And the k (Aqueous stability (UPLC))?
The k was 0.000982 h–1.

And the half-life (Aqueous stability (UPLC))?
The half-life was about 29 days.

What about the IC50 (hBChE [1]) of the same molecule?
The IC50 was 1.9 ± 0.5 nM.

And the “hBChE time-dependency observed: Yes/No” value (hBChE [1])?
Its value is “Yes”.

With CCC1(c2cn(C(=O)N3CCCCC3)cn2)Cc2ccccc2C1 [Compound 9, (4-(2-Ethylindan-2-yl)-1H-imidazol-1-yl)(piperidin-1-yl)methanone] as the molecule, how does the IC50 (hAChE) read?
Its IC50 is 7.55 ± 2.14 µM.

And the “hAChE time-dependency observed: Yes/No” value (hAChE)?
Its value is “Yes”.

What about the IC50 (hBChE [1]) of the same molecule?
Its IC50 is 2.5 ± 2 nM.

What about the “hBChE time-dependency observed: Yes/No” value (hBChE [1]) of the same molecule?
Its value is “Yes”.
